Structures can show the parent of a compound that is named as a salt.
Columns and labels:
[1] = test system: collagen induced platelet aggregation; test: Inhibition of ex vivo collagen induced aggregation after administration to dogs; type: in vivo, dogs (Beagles); conditions: dog, intragastric or intravenous; for inhibition in vivo at 10 mg/kg / inhibition in vivo at 20 mg/kg / inhibition in vivo at 30 mg/kg: Canis lupus familiaris, Platelet, read-out: Max % Inhibition
Experimental: The purpose of this assay is to determine the effects of antiplatelet compounds on ex vivo collagen induced platelet aggregation when administered either intravenously or orally to dogs.
Pretreatment (control) blood samples are drawn from either conscious or anesthetized dogs (Beagles) and centrifuged to prepare platelet rich plasma (PRP). Aggregatory response to collagen is measured in an aggregometer and used as Control.
In Table B the designation "NT" means "Not Tested". Also in Table B, two readings given in a single box indicate that two trials, rather than a single trial, were run for that particular compound in that particular assay.

[2] = test system: Platelet Aggregation in Dog PRP; test: In-Vitro Platelet Aggregation in PRP (ADP induced); type: cell-based; conditions: Canis lupus familiaris, Platelet, in-vitro
Experimental: Healthy male or female dogs were fasted for 8 hours prior to drawing blood; then 30 ml whole blood was collected using a butterfly needle and 30 cc plastic syringe with 3 ml of 0.129 M buffered sodium citrate (3.8%). The syringe was rotated carefully as blood was drawn to mix the citrate. Platelet-rich plasma (PRP) was prepared by centrifugation at 975×g for 3.17 minutes at room temperature, allowing the centrifuge to coast to a stop without braking. The PRP was removed from the blood with a plastic pipette and placed in a plastic capped, 50 ml Corning conical sterile centrifuge tube which was held at room temperature. Platelet poor plasma (PPP) was prepared by centrifuging the remaining blood at 2000×g for 15 minutes at room temperature allowing the centrifuge to coast to a stop without braking. The PRP was adjusted with PPP to a count of 2-3×10^8 platelets per ml. 400 μl of the PRP preparation and 50 μl of the compound to be tested or saline were preincubated for 1 minute at 37° C. in a BioData aggregometer (BioData, Horsham, Pa.). 50 μl of adenosine 5'diphosphate (ADP) (50 μm final concentration) was added to the cuvettes and the aggregation was monitored for 1 minute. All compounds are tested in duplicate. Results are calculated as follows:
Percent of control=[(maximal OD minus initial OD of compound) divided by (maximal OD minus initial OD of control saline)]×100. The % inhibition=100-(percent of control).

| SMILES | inhibition in vivo at 10 mg/kg ([1]; dose 10 mg/Kg) | IC50 [2] | inhibition in vivo at 30 mg/kg ([1]; dose 30 mg/Kg) | further results |
| --- | --- | --- | --- | --- |
| CCOC(=O)CC(NC(=O)CCCCc1ccc(C(=N)N)cc1)c1cccnc1 (stereo not drawn) [ethyl β-[[5-[4-(aminoiminomethyl)phenyl]-1-oxopentyl]amino]-3-pyridinepropanoate] | 100% |  |  | inhibition in vivo at 20 mg/kg ([1]; dose 20 mg/Kg): 100%; Duration ([1]; dose 20 mg/Kg): > 24 h |
| CCOC(=O)CC(Cc1ccccc1)NC(=O)CCCCc1ccc(C(=N)N)cc1 (stereo not drawn) [ethyl β-[[5-[4-(aminoiminomethyl)phenyl]-1-oxopentyl]amino]benzenebutanoate] |  |  |  | inhibition in vivo at 20 mg/kg ([1]; dose 20 mg/Kg): 30%; Duration ([1]; dose 20 mg/Kg): 1.5 h |
| N=C(N)c1ccc(CCCCC(=O)NC(CC(=O)O)c2ccccc2)cc1 (stereo not drawn) [β-[[5-4-(aminoiminomethyl)phenyl]-1-oxopentyl]amino]benzenepropanoic acid, acetate salt] |  | 5300 nM | 34% | Duration ([1]; dose 30 mg/Kg): < 2 h |
| CCOC(=O)CC(CCc1ccccc1)NC(=O)CCCCc1ccc(C(=N)N)cc1 (stereo not drawn) [ethyl β-[[5-[4-(aminoiminomethyl)phenyl]-1-oxopentyl]amino]benzenepentanoate] |  |  | 0% |  |
| C=CC(CC(=O)OCC)NC(=O)CCCCc1ccc(C(=N)N)cc1 (stereo not drawn) [ethyl 3-[[5-[4-(aminoiminomethyl)phenyl]-1-oxopentyl]amino]-4-pentenoate] |  |  | 100% |  |
| CCOC(=O)CC(C)NC(=O)CCCCc1ccc(C(=N)N)cc1 (stereo not drawn) [Ethyl 3-[[5-[4-(aminoiminomethyl)phenyl]-1-oxopentyl]amino]butanoate] | 90% | 5000 nM | 100% | Duration ([1]; dose 30 mg/Kg): > 24 h |
| CCOC(=O)CC(NC(=O)CCCCc1ccc(C(=N)N)cc1)c1ccccc1 (stereo not drawn) [Ethyl β-[[5-[4-(aminoiminomethyl)phenyl]-1-oxopentyl]amino]benzenepropanoate] | 83% | 5300 nM | 100% | Duration ([1]; dose 30 mg/Kg): > 24 h |
| CCOC(=O)CC(NC(=O)CCCCc1ccc(C(=N)N)cc1)c1ccc2c(c1)OCO2 (stereo not drawn) [ethyl β-[[5-[4-(aminoiminomethyl)phenyl]-1-oxopentyl]amino]-1,3-benzodioxole-5-propanoate] | 100% |  |  | Duration ([1]; dose 10 mg/Kg): 5 h |
| CCOC(=O)CC(CC(C)C)NC(=O)CCCCc1ccc(C(=N)N)cc1 (stereo not drawn) [ethyl 3-[[5-[4-(aminoiminomethyl)phenyl]-1-oxopentyl]amino]-5-methylhexanoate] |  |  | 100% | Duration ([1]; dose 30 mg/Kg): > 6 h |
| CCOC(=O)CC(NC(=O)CCCCc1ccc(C(=N)N)cc1)c1ccc(OCC)cc1 (stereo not drawn) [ethyl β-[[5-[4-(aminoiminomethyl)phenyl]-1-oxopentyl]amino]-4-ethoxybenzenepropanoate] |  |  |  | inhibition in vivo at 20 mg/kg ([1]; dose 20 mg/Kg): 0%; Duration ([1]; dose 20 mg/Kg): 0 h |
| CCOC(=O)CC(NC(=O)CCCCc1ccc(C(=N)N)cc1)c1cc(OC)cc(OC)c1 (stereo not drawn) [ethyl β-[[5-[4-(aminoiminomethyl)phenyl]-1-oxopentyl]amino]-3,5-dimethoxybenzenepropanoate] |  |  |  | inhibition in vivo at 20 mg/kg ([1]; dose 20 mg/Kg): 70%; Duration ([1]; dose 20 mg/Kg): 4 h |
| N=C(N)c1ccc(CCCCC(=O)NC(CC(=O)OC2CCCCC2)c2cccnc2)cc1 (stereo not drawn) [cyclohexyl β-[[5-[4-(aminoiminomethyl)phenyl]-1-oxopentyl]amino]-3-pyridinepropanoate] | 87% | 2300 nM |  | Duration ([1]; dose 10 mg/Kg): 3 h |
| N=C(N)c1ccc(CCCCC(=O)NC(CC(=O)O)c2cccnc2)cc1 (stereo not drawn) [β-[[5-[4-(aminoiminomethyl)phenyl]-1-oxopentyl]amino]-3-pyridinepropanoic acid] |  | 120 nM |  |  |
| COc1ccc(C(CC(=O)O)NC(=O)CCCCc2ccc(C(=N)N)cc2)c(OC)c1 (stereo not drawn) [β-[[5-[4-(aminoiminomethyl)phenyl]-1-oxopentyl]amino]-2,4-dimethoxybenzenepropanoic acid] |  | 2500 nM |  |  |
| N=C(N)c1ccc(CCCCC(=O)NC(CC(=O)O)c2ccc(C(=O)O)cc2)cc1 (stereo not drawn) [β-[[5-[4-(aminoiminomethyl)phenyl]-1-oxopentyl]amino]-4-carboxybenzenepropanoic acid] |  | 1300 nM |  |  |
| CC(CC(=O)O)NC(=O)CCCCc1ccc(C(=N)N)cc1 (stereo not drawn) [3-[[5-[4-(Aminoiminomethyl)phenyl]-1-oxopentyl]amino]butanoic acid] | 80% | 1200 nM |  | Duration ([1]; dose 10 mg/Kg): 5 h |
| CCOC(=O)CC(NC(=O)CCCCc1ccc(C(=N)N)cc1)c1ccc(-c2ccccc2)cc1 (stereo not drawn) [ethyl β-[[5-[4-(aminoiminomethyl)phenyl]-1-oxopentyl]amino][1,1'-biphenyl]-4-propanoate] |  |  | 0% |  |
